The subject of data set [1] is panel of 5 leukemia cell lines. Briefly: Cell growth and viability by MTS assay in a panel of leukemia cell lines. It counts as cell-based. The note with it: 72 hours, read-out: EC50, decreased viability. The protocol:
(§1) Cell growth and viability was assessed by the MTS assay (Promega, Madison, Wis.) according to the manufacturer's instructions and as previously described.^12 Cell death was measured by Annexin V-fluoroscein isothiocyanate (FITC) and Propidium Iodide (PI; Biovision Research Products, Mountain View, Calif.) staining and flow cytometry according to the manufacturer's instructions and as previously described.^13 To identify CD34+ cells, a normal PBSC sample was co-stained with PE-anti-CD34+ (Beckman Coulter, Marseille France), and APC-anti-CD45 (Becton Dickenson, San Jose Calif.).
Having identified IVM in the chemical screens, the effects of IVM on cell growth and viability was tested in a panel of leukemia, cell lines. The effects of ivermectin on cell growth and viability in a panel of 5 leukemia cell lines were tested. Cells were treated with increasing concentrations of ivermectin and 72 hours after incubation, cell growth and viability were assessed by the MTS assay. Ivermectin decreased the viability of the tested leukemia cell lines with an EC50 of approximately 5 μM (FIG. 1B). The loss of viability was detected at 24 hours after treatment and increased in a time dependent manner. Cell death and apoptosis were confirmed by Annexin V and PI staining (FIG. 1C). […] (FIG. 1F).
(Tetrazolium assays rely on reduction of a dye to a coloured formazan, in cell work by metabolically active cells.)

Data set [2] relates to DU145 and PPC-1 cells as well as primary normal hematopoietic cells. The data set is described as follows: Plasma membrane potential, DiBAC4(3) staining, resistant cells. It is filed as cell-based, human. The note with it: up to 6 μM for up to 24 hours. The method, then: Plasma membrane potential was measured as previously described.^18 Briefly, cells treated with IVM or buffer control in RPM1, chloride replete medium (140 mM sodium chloride, 5 mM potassium chloride, 1 mM magnesium sulfate, 1.8 mM calcium acetate, 10 mM glucose, 10 mM HEPES and 0.1% (wt/v) BSA), or chloride free media where equimolar gluconate salts of sodium and potassium replaced the sodium chloride in the chloride replete medium. After incubation, cells were stained with DiBAC4(3) (final concentration 30 nM) and fluorescence determined by flow cytometry (BD FACS Canto, Becton Dickinson, San Jose, Calif.) (excitation=488 nm, emission=516 nm) Analysis was conducted using FACSDiva Software (BD Biosciences). Calibration curves were prepared using phosphate buffers with varying potassium ion concentrations as previously described.^18
In nematodes, increases in intracellular chloride after IVM treatment cause membrane hyperpolarization. Therefore, the effects of IVM on plasma and mitochondrial membrane polarization was evaluated in leukemia cells. […] At increasing times after incubation, plasma membrane potential was measured by staining cells with DiBAC4(3) and flow cytometric analysis.

Another data set concerns monkeys. The note with it: oral; cited from earlier work.
Data set [3] deals with acute myeloid leukemia (AML) patient samples. The data set is described as follows: Cell viability by Annexin V and PI staining, AML patient samples. It is filed as cell-based, human. The note with it: 48 hours. The protocol: Primary human acute myeloid leukemia (AML) samples were isolated from fresh bone marrow and peripheral blood samples of consenting patients. Similarly, primary normal hematopoietic cells were obtained from healthy consenting volunteers donating peripheral blood mononuclear cells
(PBSCs) for stem cell transplantation. The mononuclear cells were isolated from the samples by Ficoll density centrifugation. Primary cells were cultured at 37° C. in IMDM supplemented with 20% FCS and appropriate antibiotics.
as §1
Given the cytotoxicity of IVM toward leukemia cell lines, its cytotoxicity was compared to primary normal hematopoietic cells and acute myeloid leukemia (AML) patient samples (n=4 intermediate risk cytogenetics, n=1 good risk cytogenetics, and n=1 unknown cytogenetics). […]

The next data set relates to OCI-AML2 cells. Briefly: Reactive oxygen species, Carboxy-H2DCFDA staining, OCI-AML2. The note with it: increasing concentrations, flow cytometry. It counts as cell-based, human. The protocol: Data were analyzed with FlowJo version 8.8 (TreeStar, Ashland, Oreg.).
Background: Flow cytometry measures light scatter and fluorescence of single cells or particles in a stream.

The subject of data set [4] is DU145 prostate cancer cells. The data set is described as follows: Cell death by Annexin V and PI staining in DU145 cells. It is filed as cell-based, human. The note with it: 24 hours. The protocol:
as §1

Data set [5] concerns OCI-AML2 subcutaneous xenografts. Briefly: OCI-AML2 xenograft, intraperitoneal ivermectin: Tunel staining and STAT1 Q-RT-PCR. It is filed as in vivo, mouse. The protocol:
In order to measure gene expression changes in vivo, OCI-AML2 cells (2.5×10^5) were injected subcutaneously into the flanks of sub-lethally irradiated NOD/SCID mice. Once tumors were established, mice were treated with ivermectin (7 mg/kg) or vehicle control intraperitoneally for 5 days. After treatment, mice were sacrificed, and tumors harvested. mRNA was extracted and changes in STAT expression were measured by quantitative RT-PCR (QRT-PCR). Evidence of apoptosis was measured by Tunel staining and immunohistochemistry (Pathology Research Program, University Health Network, Toronto, Canada).
Changes in ROS production are indicative of a biological response to ivermectin, but are very difficult to measure in the context of a clinical trial. Therefore, to identify alterations in gene expression that are a result of ROS production and could be used as biomarkers in the context of a clinical trial, gene expression profiling analysis (using Affymetrix HG U133 Plus 2.0 arrays) RNA derived from OCI-AML2 cells treated with ivermectin for 30 hr and 40 hr was undertaken. One hundred and fifty genes were deregulated >4-fold at both time points (33 under-expressed; 117 over-expressed) compared to control. […] Changes in STAT1 expression in tumors from a leukemia xenograft model were also evaluated. […] After treatment, tumors were harvested, mRNA extracted, and STAT1 expression measured by Q-RT PCR.

In general, EC50 refers to the concentration needed to bring the measured effect to its halfway point. As for ivermectin, the half-maximal effective concentration (EC50) in data set [1] was around 5 µM. The plasma membrane potential entry in data set [2] is listed as “did not show changes in their plasma membrane potential”. Also, the LD50 result in the data set on monkeys is “above 24 mg/kg”. Besides, the cytotoxicity entry in data set [3] was “cytotoxic to AML patient samples at low micromolar concentrations”. Also, in the data set on OCI-AML2 cells, the ROS production entry is reported as “increased ROS production”. In data set [4], the “sensitivity to IVM induced cell death” value was “more resistant to IVM induced cell death”. For the same substance, the “apoptosis in the subcutaneous tumor, Tunel staining” value in data set [5] (7 mg/kg intraperitoneally for 5 days) was “increased apoptosis”. Also, the “STAT1 mRNA in tumors vs vehicle control” value in data set [5] (ivermectin for 5 days, Q-RT PCR) is given as “increased in two of three tested tumors”.

The record behind these values is patent US20120225123A1, “Use of Synergistic Combinations of an Avermectin and an Antineoplastic Compounds for the Treatment of Hematological Malignancies” (UNIVERSITY HEALTH NETWORK, priority 2009, published 2012).
